The results in this text go back to patent US20210015811A1, “METHODS OF TREATING A PULMONARY BACTERIAL INFECTION USING FLUOROQUINOLONES” (HORIZON ORPHAN, LLC, priority 2009, published 2021).

Converted amounts (≈) assume the structure as drawn.

Assay [1] concerns 114 CF P. aeruginosa isolates. As to the kind of experiment: Aerobic and anaerobic MIC susceptibility testing (broth microdilution, CLSI). The settings on record: for increase of MIC50 under anaerobic conditions / increase of geometric mean of the MIC by anaerobic incubation: 114 CF isolates; for increase of MIC50 under anaerobic conditions: CAMHB + 1% KNO3 for anaerobic; for aerobic versus anaerobic MIC distribution (potency under anaerobic conditions): all 114 P. aeruginosa isolates, FIGS. 2A-D. The format is cell-based, Pseudomonas aeruginosa. The source says: One hundred and fourteen CF P. aeruginosa isolates were obtained for susceptibility testing from the CF Referral Center for Susceptibility & Synergy Studies at Columbia University (New York, N.Y.) and also from two CF Therapeutics Development Network (TDN) laboratories (Seattle Children's Hospital, Seattle, Wash. and University of North Carolina at Chapel Hill, Chapel Hill, N.C.). About sixty percent were recent isolates (2004-2007) with the remaining forty percent isolated between 1980 and 2004.
The antibiotics used in these studies included tobramycin, levofloxacin, amikacin, and aztreonam which are in use or in development as aerosolized therapies for CF. For aerobic susceptibility tests, levofloxacin hydrochloride, tobramycin sulfate, and amikacin disulfate were purchased from LKT Laboratories (St. Paul, Minn.) and aztreonam base was purchased from MP Biomedicals (Solon, Ohio). All antibiotics used for anaerobic susceptibility tests were purchased from the United States Pharmacopeia (Rockville, Md.).
(§1) Antibiotic MIC endpoints were obtained using the broth microdilution method according to the CLSI reference method. See Clinical and Laboratory Standards Institute. Methods for Dilution Antimicrobial Susceptibility Tests for Bacteria That Grow Aerobically—Seventh Edition: Approved Standard M7-A7. CLSI, Wayne, Pa., USA, 2006. Antibiotics were serially diluted to the following concentrations for aerobic testing: levofloxacin and tobramycin from 0.03-32 mg/L and amikacin and aztreonam from 0.125-128 mg/L. Anaerobic susceptibility testing required the addition of 1% potassium nitrate (KNO3) to cation-adjusted Mueller-Hinton broth (CAMHB) to allow for P. aeruginosa anaerobic respiration. For anaerobic testing, frozen MIC plates were thawed and stored in the anaerobic chamber overnight to ensure elimination of all oxygen prior to inoculation with test strains. The dilution range for all antibiotics was 0.125-128 mg/L for the anaerobic susceptibility tests. Extended incubation of up to 48 hours under anaerobic conditions may be required and was needed for 54% of the isolates.
On the technique in general: Dilution methods test growth across graded concentrations, often in twofold steps.

For assay [2], the system named is P. aeruginosa strain PAM1020 (wild-type). As to the kind of experiment: Levofloxacin MIC against isogenic strain PAM1020. The assay is classed as cell-based. The settings on record: Pseudomonas aeruginosa.
Description: (§2) P. aeruginosa strains PAM1020 (wild-type), PAM1032 (na1B), PAM1481 (na1B gyrA (Asp87Tyr)), and PAM1573 (na1B gyrA (Thr83Ile)) represent relevant efflux-mediated and target mutation resistance mechanisms and were used in the levofloxacin time-kill assays.
as §1, with “The dilution range for all antibiotics was 0.125-128 mg/L for the anaerobic susceptibility tests. Extended incubation of up to 48 hours under anaerobic conditions may be required and was needed for 54% of the isolates.” left out
(§3) Aerobic and hypoxic Mueller-Hinton broth (MHB) cultures were diluted to an initial inoculum of 1×10^7-1×10^8 CFU/ml. […] Agar plates were incubated up to 48 hours at 37° C. and bactericidal activity was assessed. […]

The test system of assay [3] is P. aeruginosa strain PAM1032 (na1B). As to the kind of experiment: Levofloxacin MIC against isogenic strain PAM1032. Particulars: Pseudomonas aeruginosa. The assay is classed as cell-based.
Description: as §2
as §1, with “The dilution range for all antibiotics was 0.125-128 mg/L for the anaerobic susceptibility tests. Extended incubation of up to 48 hours under anaerobic conditions may be required and was needed for 54% of the isolates.” left out
as §3

In assay [4] the test system is P. aeruginosa strain PAM1573 (na1B gyrA (Thr83Ile)). As to the kind of experiment: Levofloxacin MIC against isogenic strain PAM1573. The assay is classed as cell-based. The settings on record: Pseudomonas aeruginosa.
Description: as §2
as §1, with “The dilution range for all antibiotics was 0.125-128 mg/L for the anaerobic susceptibility tests. Extended incubation of up to 48 hours under anaerobic conditions may be required and was needed for 54% of the isolates.” left out
as §3

Assay [5] has as its system P. aeruginosa strain PAM1481 (na1B gyrA (Asp87Tyr)). As to the kind of experiment: Levofloxacin MIC against isogenic strain PAM1481. The assay is classed as cell-based. Particulars: Pseudomonas aeruginosa.
Description: as §2
as §1, with “The dilution range for all antibiotics was 0.125-128 mg/L for the anaerobic susceptibility tests. Extended incubation of up to 48 hours under anaerobic conditions may be required and was needed for 54% of the isolates.” left out
as §3

[6] abbreviates: anaerobic vs aerobic incubation.

Take `C[C@H]1COc2c(N3CCN(C)CC3)c(F)cc3c(=O)c(C(=O)O)cn1c23` [levofloxacin]: the “increase of MIC50 under anaerobic conditions” value (from here on “increase of MIC50”) in assay [1] (setting [6]) was determined as 2 fold. Besides, in assay [1] (anaerobic vs aerobic incubation, share of 114 CF isolates), the “isolates with MIC increase >4-fold under anaerobic conditions” value was 4%. For the same compound, the minimal inhibitory concentration (MIC) – broadly, the lowest concentration found to suppress growth – in assay [2] turned out to be 0.125 µg/mL (≈ 0.346 µM); in assay [3], 1 µg/mL (≈ 2.77 µM); in assay [4], 8 µg/mL (≈ 22.1 µM); in assay [5], 4 µg/mL (≈ 11.1 µM).

Turning to `C[C@H]1[C@H](NC(=O)/C(=N\OC(C)(C)C(=O)O)c2csc(N)n2)C(=O)N1S(=O)(=O)O` [aztreonam], the “aerobic versus anaerobic MIC distribution (potency under anaerobic conditions)” value in assay [1] is “reduced potency”. Also, in assay [1] (setting [6]), the “increase of geometric mean of the MIC by anaerobic incubation” value (“increase of geometric mean of the MIC” below) is given as around 6 fold and the “increase of MIC50” value stood at 16 fold.

As to `NC[C@H]1O[C@H](O[C@H]2[C@H](O)[C@@H](O[C@H]3O[C@H](CO)[C@@H](O)[C@H](N)[C@H]3O)[C@H](N)C[C@@H]2N)[C@H](N)C[C@@H]1O` [tobramycin], the “aerobic versus anaerobic MIC distribution (potency under anaerobic conditions)” value in assay [1] is “reduced potency”. In assay [1] (setting [6]), the “increase of geometric mean of the MIC” value is “approximately 7 fold” and the “increase of MIC50” value is given as 4 fold.

Consider `NCC[C@H](O)C(=O)N[C@@H]1C[C@H](N)[C@@H](O[C@H]2O[C@H](CN)[C@@H](O)[C@H](O)[C@H]2O)[C@H](O)[C@H]1O[C@H]1O[C@H](CO)[C@@H](O)[C@H](N)[C@H]1O` [amikacin], for which the “aerobic versus anaerobic MIC distribution (potency under anaerobic conditions)” value in assay [1] is given as “reduced potency”. For the same compound, the “increase of geometric mean of the MIC” value in assay [1] (setting [6]) is around 4 fold.
